Results taken from patent publication US20190231771A1, “METHODS FOR TREATMENT AND PREVENTION OF OPIOID INDUCED CONSTIPATION USING ORAL COMPOSITIONS OF METHYLNALTREXONE” (Salix Pharmaceuticals, Ltd., priority 2011, published 2019).

What was measured:
[1] = system: subjects with chronic non-malignant pain who have Opioid Induced Constipation (OIC); experiment: Phase 3 randomized double-blind placebo-controlled study of Oral Methylnaltrexone for OIC; type: in vivo, human
Method: A phase 3, multicenter, randomized, double-blind, placebo-controlled, parallel-group study of OM for the treatment of OIC in approximately 802 subjects with chronic non-malignant pain was conducted.
Constipation due to opioid use during the screening period: Constipation is defined as <3 Rescue-Free Bowel Movements (RFBMs) per week on average (no laxative use within 24 hours prior to bowel movement) that were associated with 1 or more of the following (based on subject's diary report): • a. A Bristol Stool Form Scale type 1 or 2 for at least 25% of the rescue-free bowel movements. • b. Straining during at least 25% of the rescue-free bowel movements. • c. A sensation of incomplete evacuation after at least 25% of the rescue-free bowel movements.
Subjects who remained eligible at the baseline visit (day 1) were randomly assigned to either OM tablet formulation 150 mg, 300 mg, 450 mg, or placebo initially in a 1:1:1:1 allocation ratio. Subjects were required to take three tablets per day, first thing in the morning on an empty stomach (prior to breakfast). Subjects were instructed to swallow the tablets whole and never to chew, divide, or crush them and wait at least one half hour before ingesting any food. Subjects participated in the study for up to 84 days. The first 28 days were once daily dosing; the remaining 56 days were dosing as needed (PRN). Dosing remained double-blind throughout the 12 week period (84 days). The 84 day treatment period were followed by a 14-day post-treatment follow-up period (±2 days). Enrollment continued until a total of approximately 802 subjects have been randomized and dosed.
At the baseline visit, subjects were randomly assigned to either OM or placebo. Subjects who met all inclusion and no exclusion criteria at the baseline visit (day 1) received study medication. All doses were to be taken in the morning prior to breakfast [The first dose administered at the baseline visit could have been taken after Noon (12:00 pm)] and subjects were instructed to wait at least one half hour before ingesting any food. Subjects participated in the study for up to 84 days: the first 28 days were double-blind once daily dosing; the remaining 56 days were double-blind PRN dosing.
The primary efficacy endpoint of this Phase 3 study was the average proportion of rescue-free laxation responses per subject within 4 hours of all doses during the first four weeks of dosing. The key secondary efficacy endpoints in hierarchical order were:
1. Change in weekly number of RFBM from baseline during Weeks 1 to 4
2. Response (responder/non-responder) to study drug during Weeks 1 to 4, where responder was defined as having ≥3 RFBM/week, with at least 1 RFBM/week increase over baseline, for at least 3 out of the first 4 weeks.
The primary efficacy endpoint was the average proportion of rescue-free laxation responses per subject within 4 hours of all doses during the first 4 weeks of dosing.
The two key secondary efficacy endpoints in hierarchical order were: • 1. Change in weekly number of RFBMs from baseline over the entire first 4 weeks (28 days) of dosing. • 2. Response (responder/non-responder) to study drug during Weeks 1 to 4, where responder is defined as having […], with at least 1 RFBM/week increase over baseline, for at least 3 out of the first 4 weeks. […]

[2] = Study B: single and multiple dose pharmacokinetics after 20-minute intravenous infusion of 24 mg methylnaltrexone; type: in vivo, human; conditions: 24 mg IV infusion; for AUC(0-inf) / Cmax: iv, 24 mg; for Cmax: read-out: Cmax
Method: (§1) Presented herein is a clinical pharmacokinetics study, Study C, as well as Studies A and B. Study A investigated the single and multiple dose pharmacokinetics of methylnaltrexone (MNTX) and its metabolites (M2: methylnaltrexone sulfate; M4: 6α-methylnaltrexol; and M5: 6β-methylnaltrexol) following the subcutaneous administration of 12 mg methylnaltrexone. In Study B, the single and multiple dose pharmacokinetics of methylnaltrexone (MNTX) and its metabolites (M2, M4, and M5) were examined following a 20-minute short intravenous infusion of 24 mg of methylnaltrexone (MNTX).
(§2) Pharmacokinetic parameters included Cmax, AUCt, AUCinf, tmax, t1/2, % Re24, accumulation factor (R) as defined below and metabolite/parent drug ratio.
(§3) R=Accumulation Factor(based on AUC0-24(ng·h/mL):Day 7 AUC AUC0-24/Day 1 AUC0-24
(§4) Metabolite-Parent Drug ratio(based on ng·h/mL)(%)=100*(Metabolite AUC24/MNTX AUC24)
(§5) Note: AUCinf was used in place of AUC AUC0-24 for R and Metabolite-Parent Drug ratio computations following IV administration.

[3] = Study C: single and multiple dose pharmacokinetics of MNTX and metabolites, MNTX 450 mg PO x 7 days; type: in vivo, human; conditions: for bioavailability: oral, MNTX tablets 450 mg, cross-study AUCinf comparison; for bioavailability / half-life / AUC(0-inf) / AUC(0-t) / Cmax: 450 mg; for half-life / AUC(0-inf) / AUC(0-t) / Cmax: po; for AUC(0-t): read-out: AUC0-24; for Cmax: read-out: Cmax
Method: as §1
In addition, the urinary elimination of MNTX was characterized.
as §2, §3, §4, §5

[4] = Study A: single and multiple dose pharmacokinetics after subcutaneous 12 mg methylnaltrexone; type: in vivo, human; conditions: for AUC(0-t) / Cmax: sc, 12 mg; for AUC(0-t): read-out: AUC0-24; for Cmax: read-out: Cmax
Method: as §1, §2, §3, §4, §5

[5] = Yuan et al. 2005 J Clin Pharm 45:538-546; cited from earlier work
[6] = 150 mg, 300 mg and 450 mg daily oral vs placebo
[7] = human, plasma, 450 mg Tablets oral, Day 1, mean
[8] = human, plasma, 450 mg Tablets oral, Day 7, mean
[9] = human, plasma, 12 mg SC Injection, Day 1, mean
[10] = human, plasma, 12 mg SC Injection, Day 7, mean

For `C[N@+]1(CC2CC2)CC[C@]23c4c5ccc(O)c4O[C@H]2C(=O)CC[C@@]3(O)[C@H]1C5.[Br-]` [MNTX, (R)—N-(cyclopropylmethyl) noroxymorphone methobromide], the “primary efficacy endpoint: average proportion of rescue free bowel movements per subject within 4 hours of all doses during the first 4 weeks of dosing” value [1, 6] was “demonstrate efficacy”, the “secondary efficacy endpoints: change in weekly number of RFBMs from baseline weeks 1-4; response to study drug” value [1, 6] was “further demonstrate efficacy” and the adverse events ([1]; dosages of 150 mg, 300 mg and 450 mg) was “did not result in adverse events”. The “proportion of subjects with rescue free bowel movements within 4 hours of the first dose” value ([1]; first dose of study drug) was “further confirmed efficacy”, the “laxation effects, fasted compared to non-fasted subjects” value ([1]; phase 3 study, following the first dose of study drug) was “increased in fasted subjects compared to non-fasted subjects” and the “R (IV), accumulation factor” value ([2]; AUCinf used) was 1.17. The AUC(0-inf) ([2]; human, in vivo, Day 1, mean) was 396 ng·h/mL, the Cmax ([2]; human, in vivo, Day 1, mean) was 533 ng/mL and the AUC(0-inf) ([2]; human, in vivo, Day 7, mean) was 375 ng·h/mL. For the same compound, the Cmax ([2]; human, in vivo, Day 7, mean) was 520 ng/mL, the half-life ([2]; human, in vivo, day not given) was 10.8 h and the AUC(0-t) ([2]; human, in vivo, day not given, mean, read-out: AUC0-6) was 326 ng·h/mL. The “R (PO), accumulation factor” value ([3]; 450 mg Tablets oral, AUC0-24 on Day 7/AUC0-24 on Day 1) was 1.20, the bioavailability ([3]; human, plasma, multiple dose, read-out: bioavailability relative to IV multiple dose administration) was 5.8% and the bioavailability ([3]; human, plasma, multiple dose, read-out: bioavailability relative to SC multiple dose administration) was 4.8%. The bioavailability ([3]; human, plasma, single dose, read-out: absolute bioavailability (relative to IV infusion)) was 4.24%, the bioavailability ([3]; human, plasma, single dose, read-out: bioavailability relative to SC injection) was 3.7% and the half-life ([3]; human, plasma, 450 mg Tablets oral, Day 1, harmonic mean) was 8.8 h. It also gave an AUC(0-inf) [3, 7] of 315 ng·h/mL, an AUC(0-t) [3, 7] of 280 ng·h/mL and a Cmax [3, 7] of 47 ng/mL. For the same compound, the half-life ([3]; human, plasma, 450 mg Tablets oral, Day 7, harmonic mean) was 19.2 h, the AUC(0-inf) [3, 8] was 404 ng·h/mL and the AUC(0-t) [3, 8] was 309 ng·h/mL. For the same compound, the Cmax [3, 8] was 45.5 ng/mL, the Tmax ([3]; human, plasma, 450 mg Tablets oral, Day 1, median, read-out: Tmax) was 2 h and the AUCinf ([4]; 12 mg SC Injection, Day 7, mean) was 223.0 ng·h/mL. For the same compound, the “R (SC), accumulation factor” value ([4]; 12 mg SC Injection, AUC0-24 on Day 7/AUC0-24 on Day 1) was 1.05, the AUC(0-t) [4, 9] was 218 ng·h/mL and the Cmax [4, 9] was 140 ng/mL. For the same compound, the AUC(0-t) [4, 10] was 223 ng·h/mL, the Cmax [4, 10] was 119 ng/mL and the bioavailability ([4]; human, plasma, subcutaneous, 12 mg SC vs 24 mg IV infusion, cross-study, read-out: bioavailability of subcutaneous injection relative to short-term infusion) was 112%. It also gave an AUC(0-inf) [4, 9] of 223 ng·h/mL, a Tmax ([4]; human, plasma, 12 mg SC Injection, Day 1, median, read-out: Tmax) of 0.25 h and a half-life ([4]; human, plasma, 12 mg SC Injection, day not given, harmonic mean) of 5.33 h. The “dose recovered in urine following IV administration” value [5] was 31.5%-49.6%.
